Measurements reported in patent publication US20190282600A1, “COMBINATION THERAPIES TARGETING TERT DEPENDENCY FOR CANCER THERAPY” (The Wistar Institute of Anatomy and Biology, priority 2018, published 2019).

Experiments:
[1] = tested on: NRAS mutant melanoma cells; experiment: Telomere dysfunction-induced foci (TIF) assay, IF-FISH; format: cell-based, Human; conditions: WM3000 cells transduced with TERT shRNA, NAC 1 mM for 7 days
Procedure: NRAS mutant melanoma cells WM3000 were transduced with TERT shRNA and treated with NAC (mM) for 7 days. […] Representative images are shown. (scale bar=10 μm). Quantification of TIF positive cells is plotted in FIG. 13b. Cells were scored as TIF positive when three or more g-H2AX foci (green) were co-localizing with telomere foci (red). Data represent average of thirteen fields imaged +/−SD.
NRAS^mut melanoma cells were treated with 6-thio-dG for 6, 12 or 18 days. As presented in FIG. 15a, relative cell number was assessed by Crystal Violet assay and calculated relative to DMSO-treated cells. Data represent average of three independent experiments +/−SD. […] NRAS^mut cells were treated with 6-thio-dG for 7 days and telomere induced foci (TIF) was determined by indirect immunofluorescence combined with fluorescence in situ hybridization (FISH) (FIG. 15c). […] Quantification of TIF assay is plotted in FIG. 15d. Cells were scored as TIF positive when four or more γ-H2AX foci (green, center row of FIG. 15c labelled as γH2AX) were co-localizing with telomere foci (red, top row of FIG. 15c labelled as Telomeres). […] P values were calculated by unpaired Student's t-test.
For TIF analysis, indirect immunofluorescence (IF) combined with fluorescence in situ hybridization (FISH) was performed as previously described with some modifications. […] TIF were quantified from at least three independent experiments.

[2] = tested on: NRAS mutant melanoma spheroids; experiment: 3D collagen-embedded tumor spheroids, Live/Dead staining; format: cell-based, Human; conditions: 6-thio-dG 5 μM and Ganetespib 5 μM, day 7
Procedure: FIGS. 6a to 6e provide results showing that combining 6-thio-dG and Gamitrinib inhibits the growth of 3D melanoma spheroids and NRAS-mutant xenograft tumors. […] 4a to 4e. On day 7, spheroids were stained with Calcein AM (live cells; green) and EtBr (dead cells; red) and imaged using an inverted microscope (4X; scale bar=250 μm). […] P values were calculated using unpaired Student's t-test. *p<0.05, ** p<0.01, ***p<0.005, when comparing vehicle control vs. combination treatment groups. As presented in FIG. 6d, treatment was discontinued after 14 days, and mice were followed until tumor volume reached a preset volume (1500 mm^3). Kaplan Meier survival curves of mice treated for 14 days. p-values were calculated by Mantel-Cox log-rank test; *p<0.05, **p<0.01, ***p<0.005. Animal weight (grams) before treatment (Start of TX) and at the end of the study (End of TX) was assessed, recorded for every mouse enrolled in the study and plotted in FIG. 6e. Mean and SEM are depicted (n=7 mice/treatment group). Statistical significance was assessed by unpaired Student's t-test.
In FIG. 17a, NRAS^mut melanoma cells were treated with 6-thio-dG (1 μM) for 7 days total. At day 5, culture medium was replaced and cells were treated with 1 μM 6-thiodG plus 1 mM Phenformin for two more days. Percent cell death was determined by flow cytometry following staining of cells with Annexin V and Propidium iodide. […]

[3] = tested on: BRAF mutant melanoma cells; experiment: Cell death by Annexin V/PI flow cytometry; format: cell-based, Human; conditions: 1 μM 6-thio-dG, 5 μM Gam, single agent or in combination
Procedure: (§1) FIGS. 5a to 5e provide bar graphs showing that combination treatment with 6-Thio-dG and Gamitrinib (Gam) triggers death selectively in NRAS mutant tumor cells. NRAS-WT/BRAF-WT melanoma cells (FIG. 5a), NRAS-WT/BRAF-mut melanoma cells (FIG. 5b), NRAS mutant neuroblastoma cells (FIG. 5c), NRAS-WT/KRAS-mutant colon cancer cells (FIG. 5d), and NRAS-WT/KRAS-mutant lung cancer cells were treated with 1 μM 6-thio-dG for 5 days (FIG. 5e). At day 5, culture medium was replaced and cells treated with 1 μM 6-thio-dG plus 5 μM Gam for two more days. Cells were stained with Annexin V and PI and percent cell death was determined by FACS. Data represent average of three independent experiments +/−SEM; p values were calculated using un-paired Student's t-test; *p<0.05; **p<0.001.
(§2) Cells were seeded in 96-well plates and treated with drugs. After 6 days, cell viability was assessed following 6h incubation with […] Alamar Blue (ThermoFisherScientific, Philadelphia, Pa.) by measuring fluorescence using an EnVision Xcite Multilabel plate reader (Perkin Elmer, Waltham, Mass.). Cell death was determined by flow cytometry using PSVue-643 (Molecular Targeting Technologies) or Annexin V (640919, Biolegend, San Diego, Calif.) and Propidium Iodide (Sigma) staining. Samples were analyzed using a BD LSRII flow cytometer (BD Biosciences, San Jose, Calif.).

[4] = tested on: NRAS-WT/BRAF-WT melanoma cells; experiment: Cell death by Annexin V/PI flow cytometry; format: cell-based, Human; conditions: 1 μM 6-thio-dG, 5 μM Gam, single agents or in combination
Procedure: as §1, §2

NRAS mutant cells = conditions: Chae et al., 2012; cited from earlier work
[5] = tested on: prostate, breast and lung cancer, BRAF-V600E-mutant melanoma; conditions: Chae et al., 2012; cited from earlier work
[6] = tested on: NRAS mutant melanoma cells; experiment: Cell death by flow cytometry (PSVue or Annexin V/PI); format: cell-based, Human; conditions: cells transduced with TERT shRNA, 7 days post infection 5 μM Gamitrinib for 48 h
Procedure: FIGS. 2a to 2c show NRAS^mut melanoma cells (FIG. 2a), BRAF-V600E/NRAS mutant cells derived from melanoma patients resistant to BRAF/MEK inhibitors (FIG. 2b), or non-transformed melanocytes and fibroblasts (FIG. 2c) were treated with 6-thio-dG for 7 days. Cell viability was measured by Alamar Blue assay and calculated relative to DMSO-treated cells. […] Cell death was assessed by PSVUe staining. Percent of apoptotic cells is shown. […] Mean TRF length expressed as kilobase pairs is indicated at the bottom. […] FIG. 2g provides a bar graph showing that DNA damage was assessed by γH2AX staining. Data represent average from three independent experiments ±SEM. *p<0.05; **p<0.01; ***p<0.005 in unpaired Student's t-test. As presented in FIG. 2h, mice bearing established WM3000 or M93-047 NRAS^mut tumors were treated with vehicle control or 6-thio-dG (2.5 mg/kg i.p; q.d). Tumor volume was measured and average tumor volume (n=4) ±SEM was plotted vs. time.
FIGS. 3a to 3g provides graphs showing that telomere dysfunction enhances oxidative stress leading to upregulation of an antioxidant program. […] Mitochondrial superoxide production was measured by MitoSox Red fluorescence (FIGS. 3c, and 3d) and expressed as fluorescence relative to vector or DMSO controls. […] FIG. 3f provides a bar graph showing that SOD2 was silenced using shRNA. Transduced M93-047 cells were treated with DMSO or 1 μM of 6-thio-dG and cell death was assessed by Annexin V/PI straining. As presented in FIG. 3g, M93-047 cells were transduced with a SOD2 lentiviral construct or empty vector control (pLX304). Transduced cells were treated with increasing doses (1, 2.5 and 5 μM) of 6-thio-dG for 7 days and cell death was assessed. Data represent average from three independent experiments ±SEM. *p<0.05; **p<0.01; ***p<0.005 in unpaired Student's t-test.
FIGS. 4a to 4e provides bar graphs showing that induction of telomere and mitochondrial dysfunction triggers cell death in NRAS mutant melanoma. […] Cell death was assessed by Annexin V and PI staining. […] Cells were stained with Annexin V and PI and percent cell death was determined by flow cytometry. […] P values were calculated using unpaired Student's t-test; * p<0.05; *** p<0.005.
As presented in FIG. 16a, SOD2 was silenced using shRNA. Transduced WM3000 cells were treated with DMSO or 1 μM of 6-thio-dG and cell death was assessed by Annexin V/PI straining. […] Transduced cells were treated with increasing doses (1, 2.5 and 5 μM) of 6-thio-dG for 10 days and cell death was assessed. […]
In FIG. 17a, NRAS^mut melanoma cells were treated with 6-thio-dG (1 μM) for 7 days total. […] Percent cell death was determined by flow cytometry following staining of cells with Annexin V and Propidium iodide. […]

SOD2 = conditions: Siegelin et al., 2011; cited from earlier work
[7] = tested on: NRAS mutant SKNAS neuroblastoma cells; experiment: Cell death by Annexin V/PI flow cytometry; format: cell-based; conditions: 1 μM 6-thio-dG, 5 μM Gam, single agents or in combination
Procedure: as §1, §2

KRAS mutant A549 cells = experiment: Cell death by Annexin V/PI flow cytometry; format: cell-based; conditions: 1 μM 6-thio-dG, 5 μM Gam
Procedure: as §1, §2

KRAS mutant HCT116 cells = experiment: Cell death by Annexin V/PI flow cytometry; format: cell-based; conditions: 1 μM 6-thio-dG, 5 μM Gam
Procedure: as §1, §2

[8] = literature; cited from earlier work
[9] = literature; cited from earlier work; remark: listed apart in the source

Molecule: CC(=O)N[C@@H](CS)C(=O)O [NAC, N-acetyl-L-cysteine]
- number of TIF [1]: attenuated the number of TIF

Molecule: CC(C)c1cc(-c2n[nH]c(=O)n2-c2ccc3c(ccn3C)c2)c(O)cc1O [ganetespib]
- enhancement of 6-Thio-dG efficacy in spheroids [2]: did not enhance the efficacy of 6-Thio-dG

Molecule: Gamitrinib
- cell death [3]: 75-80%
- cell death [4]: did not induce cell death
- anti-cancer activity as a single agent (NRAS mutant cells): limited activity
- mitochondrial membrane potential [5]: rapid and complete loss of mitochondrial membrane potential
- cell death (Annexin V/PI) [6]: enhanced the cytotoxic effects of Gamitrinib
- SOD2 levels (SOD2): downregulate SOD2 levels
- cell death [7]: triggered significant death
- cell death (KRAS mutant A549 cells): did not induce substantial death
- cell death (KRAS mutant HCT116 cells): did not induce substantial death

Molecule: imetelstat
- activity [8]: limited activity
- efficacy [9]: efficacy
